Reference: patent US20260356834A1, “ANTICONVULSIVE COMPOUNDS AND USES THEREOF” (Jazz Pharmaceuticals Research UK Limite, priority 2023, published 2026)
Where “and” joins values, the source holds several entries; their conditions need not be identical. Equal entries are not always repeated. Marks after values point to notes of the source that are not given here.

Legend:
C57BL/6J mice [1] = test: mouse maximal electroshock seizure threshold model using minimal sample sizes (mini-MEST)
Protocol: An increase in seizure threshold is indicative of an anticonvulsive effect.
The ability of a test compound to alter the stimulus intensity, expressed as current (mA), required to induce the presence of tonic hind limb extensor convulsions, is assessed in the MEST.
In the mini-MEST test, a lower n number is used.
Male C57BL/6J mice were housed in groups of 6. Mice were kept under standard conditions (12 hour light cycle; light intensity of 25-75 lux) and fed a diet of certified rodent CR 14% protein rodent diet (LabDiet® 4CR4). Mice were 8-9 weeks old at the start of the study.
Naïve mice were acclimatised to the procedure room in their home cages for up to 7 days, with food and water available ad libitum.
All animals were weighed at the beginning of the study and randomly assigned to treatment groups based on a mean distribution of body weight across groups.
The first animal within a treatment group was given a shock at the expected or estimated CC50 current. For subsequent animals, the current was lowered or raised depending on the convulsions outcome from the preceding animal in log scale intervals.
Data generated from each treatment group were used to calculate the CC50±SEM values for the treatment group.
Vehicle: (5% ethanol, 10% Solutol® (Kolliphor® HS 15), 85% saline). 1 mL of ethanol, 2 mL of Solutol™ were warmed to 60 °C, in 17 mL of 0.9% saline.
Test compounds: 5-50 mg/kg in a 1:2:17 ethanol:Solutol®:saline formulation (as used for vehicle).

C57BL/6J mice [2] = test: mouse maximal electroshock seizure threshold model (MEST); assay type: in vivo
Protocol: Vehicle=1:2:17 ethanol:Solutol® (Kolliphor® HS 15):saline: 1 mL of ethanol and 2 mL of solutol were warmed to 60 °C and 17 mL of 0.9% saline was added slowly. […]
Vehicle=0.5% HPMC and 0.1% Tween 80:0.5% HPMC and 0.1% Tween 80 in water.

RjOrl: Swiss mice = test: mouse 6 Hz (44 mA) model of partial seizures; assay type: in vivo; conditions: for Mean Forelimb Clonus +/− SEM: score 0-2; for Change from vehicle 2 (forelimb clonus): vs vehicle 2 (1:2:17)
Text: The 6 Hz (44 mA) model of partial seizures, which detects anticonvulsant activity, follows that described by Brown et al. 1953.
[…] A decrease in forelimb clonus score is indicative of protection from seizure and an anticonvulsive effect.
When conducted at a 44 mA stimulus intensity in mice, the 6 Hz test can differentiate compounds with potential for the treatment of focal-onset seizures that are often resistant to current anti-epileptic drugs.
Male RjOrl: Swiss mice (Janvier Labs, 53940 Le Genest-Saint-Isle, France), 5 weeks old, weighing 27-38 g at the beginning of the experiment. Animals were acclimatized to the Test Facility for at least 5 days after delivery and randomly housed in groups of 5 to 8 in macrolon cages on wood litter with free access to food and water.
The animal house was maintained under artificial lighting (12 hours) between 7:00 and 19:00 in a controlled ambient temperature of 22±2 °C and relative humidity between 30-70%.
Before transcorneal stimulation, a drop of tetracaine solution (1%) was applied on each eye of the mouse for local anesthesia. Between 1-10 minutes later and at the designated pre-treatment (see below), the mice were administered a rectangular current (44 mA, rectangular pulse: 0.2 ms pulse width, 3 s duration, (6 Hz) via corneal electrodes connected to a constant current shock generator (Ugo Basile: type 7801).
The results for the number of seizures as reflected by forelimb clonus were recorded immediately after current administration. Forelimb clonus was scored as absent (0=no forelimb clonus), mild (1=clonus with one forelimb) and strong (2=clonus with both forelimbs). The experimenters were blinded to the treatment. […]
The administration volume was 10 mL/kg.
Due to the number of animals tested, the experiment was divided in 2 sub-experiments on 2 consecutive days with equivalent numbers of mice per group and per sub-experiment.
Data were discrete values so considered to be non-normally distributed based on validation data, therefore non-parametric tests were utilized. Quantitative data (scores) with the test substance were analyzed by comparing test compound-treated groups with the 1:2:17 vehicle control using Kruskal-Wallis test with Dunn's multiple comparisons test when the Kruskal-Wallis test was significant. Quantitative data with the reference substance were analyzed using Mann-Whitney U test as compared to saline vehicle.

[3] = 10 mg/kg i.p., 15 min post dose
[4] = 10 mg/kg i.p., 30 min post dose
[5] = 10 mg/kg i.p., 60 min post dose
[6] = 30 mg/kg i.p., 30 min post dose
[7] = 10 mg/kg p.o., 30 min, HPMC vehicle
[8] = 10 mg/kg p.o., 30 min, vs HPMC vehicle
[9] = 50 mg/kg p.o., 30 min, HPMC vehicle
[10] = 25 mg/kg p.o., 15 min post dose
[11] = 25 mg/kg p.o., 60 min post dose
[12] = 50 mg/kg p.o., 30 min post dose
[13] = 50 mg/kg p.o., 60 min post dose
[14] = 50 mg/kg p.o., 120 min post dose
[15] = 50 mg/kg p.o., 240 min post dose

CCCc1cc(O)c(-c2c(C)ccn3ccnc23)c(O)c1 [Compound 2, 2-(7-Methylimidazo[1,2-a]pyridin-8-yl)-5-propylbenzene-1,3-diol]
CC50 +/− SEM (C57BL/6J mice [1]; [3]): 67.5 ± 2.6 mA and 65.8 ± 1.9 mA | Change from vehicle (CC50) (C57BL/6J mice [1]; [3]): 150% and 145% | CC50 +/− SEM (C57BL/6J mice [1]; [4]): 35.3 ± 1.1 mA | Change from vehicle (CC50) (C57BL/6J mice [1]; [4]): 32% | CC50 +/− SEM (C57BL/6J mice [1]; [5]): 56.0 ± 1.6 mA | Change from vehicle (CC50) (C57BL/6J mice [1]; [5]): 109% | CC50 +/− SEM (C57BL/6J mice [1]; [6]): >131.0 mA | Change from vehicle (CC50) (C57BL/6J mice [1]; [6]): 414% | CC50 +/− SEM (C57BL/6J mice [2]; 1 mg/kg i.p., 15 min, 1:2:17 ethanol:Solutol:saline): 26.0 ± 0.4 mA | Change from vehicle (CC50) (C57BL/6J mice [2]; 1 mg/kg i.p., 15 min, vs 1:2:17 ethanol:Solutol:saline vehicle): 11%^### | CC50 +/− SEM (C57BL/6J mice [2]; 5 mg/kg i.p., 15 min, 1:2:17 ethanol:Solutol:saline): 29.4 ± 0.9 mA | Change from vehicle (CC50) (C57BL/6J mice [2]; 5 mg/kg i.p., 15 min, vs 1:2:17 ethanol:Solutol:saline vehicle): 26%^### | CC50 +/− SEM (C57BL/6J mice [2]; [7]): 27.0 ± 0.7 mA | Change from vehicle (CC50) (C57BL/6J mice [2]; [8]): 17%*** | CC50 +/− SEM (C57BL/6J mice [2]; 30 mg/kg i.p., 30 min, 1:2:17 ethanol:Solutol:saline): 38.2 ± 1.5 mA | Change from vehicle (CC50) (C57BL/6J mice [2]; 30 mg/kg i.p., 30 min, vs 1:2:17 ethanol:Solutol:saline vehicle): 64%^### | CC50 +/− SEM (C57BL/6J mice [2]; [9]): 38.2 ± 0.5 mA | Change from vehicle (CC50) (C57BL/6J mice [2]; 50 mg/kg p.o., 30 min, vs HPMC vehicle): 66%*** | CC50 +/− SEM (C57BL/6J mice [2]; 60 mg/kg i.p., 30 min, 1:2:17 ethanol:Solutol:saline): 59.5 ± 2.6 mA | Change from vehicle (CC50) (C57BL/6J mice [2]; 60 mg/kg i.p., 30 min, vs 1:2:17 ethanol:Solutol:saline vehicle): 155%^### | Mean Forelimb Clonus +/− SEM (RjOrl: Swiss mice; 10 mg/kg i.p., 30 min): 0.7 ± 0.1 | Change from vehicle 2 (forelimb clonus) (RjOrl: Swiss mice; 10 mg/kg i.p., 30 min): −22% | Mean Forelimb Clonus +/− SEM (RjOrl: Swiss mice; 30 mg/kg i.p., 15 min): 0.7 ± 0.1 | Change from vehicle 2 (forelimb clonus) (RjOrl: Swiss mice; 30 mg/kg i.p., 15 min): −22% | Mean Forelimb Clonus +/− SEM (RjOrl: Swiss mice; 60 mg/kg i.p., 30 min): 0.7 ± 0.1 | Change from vehicle 2 (forelimb clonus) (RjOrl: Swiss mice; 60 mg/kg i.p., 30 min): −22% | sedation (RjOrl: Swiss mice; 100 mg/kg i.p.): slight sedation observed | Mean Forelimb Clonus +/− SEM (RjOrl: Swiss mice; 100 mg/kg i.p., 30 min): 0.3 ± 0.1 | Change from vehicle 2 (forelimb clonus) (RjOrl: Swiss mice; 100 mg/kg i.p., 30 min): −67% | adverse signs (RjOrl: Swiss mice; 10, 30 or 60 mg/kg i.p.): no adverse signs were noted

CCCc1cc(O)c(-c2c(C)c(Cl)cn3ccnc23)c(O)c1 [Compound 4, 2-(6-Chloro-7-methylimidazo[1,2-a]pyridin-8-yl)-5-propylbenzene-1,3-diol]
CC50 +/− SEM (C57BL/6J mice [1]; [10]): 80.9 ± 3.7 mA | Change from vehicle (CC50) (C57BL/6J mice [1]; [10]): 216% | CC50 +/− SEM (C57BL/6J mice [1]; 25 mg/kg p.o., 30 min post dose): 92.9 ± 1.1 mA and 53.5 ± 3.4 mA and 106.6 ± 1.1 mA | CC50 +/− SEM (C57BL/6J mice [1]; [11]): 70.5 ± 1.1 mA | Change from vehicle (CC50) (C57BL/6J mice [1]; [11]): 176% | CC50 +/− SEM (C57BL/6J mice [1]; [6]): 70.5 ± 1.1 mA | Change from vehicle (CC50) (C57BL/6J mice [1]; [6]): 140% | CC50 +/− SEM (C57BL/6J mice [1]; [12]): 80.9 ± 1.1 mA | Change from vehicle (CC50) (C57BL/6J mice [1]; [12]): 145% | CC50 +/− SEM (C57BL/6J mice [1]; [13]): >131.0 mA | Change from vehicle (CC50) (C57BL/6J mice [1]; [13]): >297% | CC50 +/− SEM (C57BL/6J mice [1]; [14]): 61.4 ± 1.1 mA | Change from vehicle (CC50) (C57BL/6J mice [1]; [14]): 100% | CC50 +/− SEM (C57BL/6J mice [1]; [15]): 61.4 ± 3.7 mA | Change from vehicle (CC50) (C57BL/6J mice [1]; [15]): 100% | CC50 +/− SEM (C57BL/6J mice [2]; 5 mg/kg p.o., 15 min, HPMC vehicle): 23.5 ± 2.1 mA | Change from vehicle (CC50) (C57BL/6J mice [2]; 5 mg/kg p.o., 15 min, vs HPMC vehicle): 11% | CC50 +/− SEM (C57BL/6J mice [2]; [7]): 22.5 ± 0.3 mA | Change from vehicle (CC50) (C57BL/6J mice [2]; [8]): 14% | CC50 +/− SEM (C57BL/6J mice [2]; 25 mg/kg p.o., 15 min, HPMC vehicle): 27.5 ± 1.3 mA | Change from vehicle (CC50) (C57BL/6J mice [2]; 25 mg/kg p.o., 15 min, vs HPMC vehicle): 32%** | CC50 +/− SEM (C57BL/6J mice [2]; 25 mg/kg p.o., 30 min, HPMC vehicle): 60.8 ± 2.9 mA | Change from vehicle (CC50) (C57BL/6J mice [2]; 25 mg/kg p.o., 30 min, vs HPMC vehicle): 132%*** | CC50 +/− SEM (C57BL/6J mice [2]; [9]): 92.5 ± 3.2 mA and 125.0 ± 33.4 mA | CC50 +/− SEM (C57BL/6J mice [2]; 100 mg/kg p.o., 30 min, HPMC vehicle): 200.0 ± 3.7 mA | Change from vehicle (CC50) (C57BL/6J mice [2]; 100 mg/kg p.o., 30 min, vs HPMC vehicle): 860%*** | Mean Forelimb Clonus +/− SEM (RjOrl: Swiss mice; 10 mg/kg i.p., 30 min): 1.00 ± 0.11 | Change from vehicle 2 (forelimb clonus) (RjOrl: Swiss mice; 10 mg/kg i.p., 30 min): +54% | Mean Forelimb Clonus +/− SEM (RjOrl: Swiss mice; 30 mg/kg i.p., 15 min): 0.30 ± 0.11 | Change from vehicle 2 (forelimb clonus) (RjOrl: Swiss mice; 30 mg/kg i.p., 15 min): −54% | Mean Forelimb Clonus +/− SEM (RjOrl: Swiss mice; 60 mg/kg i.p., 30 min): 0.30 ± 0.11 | Change from vehicle 2 (forelimb clonus) (RjOrl: Swiss mice; 60 mg/kg i.p., 30 min): −54% | Mean Forelimb Clonus +/− SEM (RjOrl: Swiss mice; 100 mg/kg i.p., 30 min): 0.11 ± 0.07 | Change from vehicle 2 (forelimb clonus) (RjOrl: Swiss mice; 100 mg/kg i.p., 30 min): −83%** | sedation (RjOrl: Swiss mice; 60 and 100 mg/kg i.p.): ***p < 0.001; relatively low forelimb seizure scores in the 1:2:17 vehicle group may impact data interpretation; slight to moderate sedation observed with Compound 4 at 60 and 100 mg/kg.
